Source: ChEMBL document CHEMBL6153148, “Carboxamide-Bearing Panobinostat Analogues Designed To Interact with E103-D104 at the Cavity Opening of Class I HDAC Isoforms” (ACS Med Chem Lett, 2025)

Molecular target: Histone deacetylase 2 (Homo sapiens, UniProt Q92769)
Experiment: Inhibition of human HDAC2 using RHKKAc as substrate by fluorescence based analysis

Histone deacetylase 2, sequence (Q92769 whole entry): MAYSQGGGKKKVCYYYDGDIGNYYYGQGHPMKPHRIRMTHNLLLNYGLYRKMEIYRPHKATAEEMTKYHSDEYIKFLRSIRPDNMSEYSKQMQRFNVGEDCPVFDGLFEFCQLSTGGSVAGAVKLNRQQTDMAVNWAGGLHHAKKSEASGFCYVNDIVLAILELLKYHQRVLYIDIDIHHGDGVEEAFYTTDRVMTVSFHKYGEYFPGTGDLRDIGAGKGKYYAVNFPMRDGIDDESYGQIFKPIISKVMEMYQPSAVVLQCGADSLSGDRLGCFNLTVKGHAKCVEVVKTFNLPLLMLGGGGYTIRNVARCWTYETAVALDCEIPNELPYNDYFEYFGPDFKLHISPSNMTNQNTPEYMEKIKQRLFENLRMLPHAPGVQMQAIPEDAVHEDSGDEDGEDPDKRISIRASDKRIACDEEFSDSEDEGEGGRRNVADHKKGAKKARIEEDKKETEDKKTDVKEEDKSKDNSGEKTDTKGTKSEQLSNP

IC50 | SMILES
150 nM | Cc1[nH]c2ccccc2c1C[C@H](NCc1ccc(/C=C/C(=O)NO)cc1)C(N)=O
450 nM | NC(=O)[C@@H]1Cc2c([nH]c3ccccc23)[C@@H](c2ccc(/C=C/C(=O)NO)cc2)N1
450 nM | NC(=O)[C@@H]1Cc2c([nH]c3ccccc23)[C@H](c2ccc(/C=C/C(=O)NO)cc2)N1
3320 nM | NC(=O)[C@H]1Cc2c([nH]c3ccccc23)[C@H](c2ccc(/C=C/C(=O)NO)cc2)N1
350 nM | NC(=O)[C@H](Cc1c[nH]c2ccccc12)NCc1ccc(/C=C/C(=O)NO)cc1
530 nM | Cc1[nH]c2ccccc2c1C[C@@H](NCc1ccc(/C=C/C(=O)NO)cc1)C(N)=O
420 nM | NC(=O)[C@@H](Cc1c[nH]c2ccccc12)NCc1ccc(/C=C/C(=O)NO)cc1
3320 nM | NC(=O)[C@H]1Cc2c([nH]c3ccccc23)[C@@H](c2ccc(/C=C/C(=O)NO)cc2)N1
